Reference: patent US8686113B2 (priority 2009, dated 2014)
Converted amounts (≈) assume the structure as drawn. Read-outs that look alike come from different tables or passages of the source. Non-standard residues stand in square brackets, D forms with d. Residues, ends and D or L forms follow the SMILES beside them. No end group written: not given here. *: point of attachment. Hyp = O=C(O)[C@@H]1C[C@@H](O)CN1; Orn = NCCC[C@H](N)C(=O)O; NHPr = CCCN*

Assays:
E. coli BL21 A1 = format: cell-based, Escherichia coli; conditions: BL21, 20 h
Summary of the method: (§1)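 Broth microdilution in 1% TSB with twofold peptide series, final 128 μg/mL to 62.5 ng/mL, against 5×10^6 bacteria/mL stock suspension added 1:1. Incubated 20 h at 37 °C, growth read by absorbance at 595 nm; MIC is the lowest concentration with no growth, determined in triplicate.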

M. luteus 10240 = experiment: Growth inhibition assay (microdilution MIC); format: cell-based, Micrococcus luteus; conditions: 10240, 20 h
Summary of the method: as §1

[1] = system: K. pneumoniae K6 ATCC 700603; conditions: ATCC 700603
Method: (§2) The minimum inhibitory concentrations (MIC) of the antimicrobial peptides and peptide derivatives were determined in microdilution assays. These used a continuous peptide dilution in sterile flat-bottomed 96-well microtiter plates (polystyrene, Greiner Bio-One GmbH, Frickenhausen, Germany) and a total volume of 100 μL per well. The aqueous peptide or peptidomimetic solutions were diluted with 1% TSB water, to obtain a final concentration of 256 μg/mL. 50 μL of the peptide or peptidomimetic solution was pipetted into the first well of each series and stirred. From this solution, 50 μL was transferred to the second well, stirred and again 50 μL was transferred to the next well, and so on. A double dilution series is obtained, beginning at 256 μg/mL in the first well to 125 ng/mL in the twelfth well. The bacteria, e.g. E. coli BL21 A1, were cultured overnight at 37° C. in nutrient broth (NB, Carl Roth GmbH+Co. KG, Karlsruhe, Germany). 50 μL of a 5×10^6 bacteria/mL suspension in 1% TSB was added to each well of the microtiter plate and thus a final concentration of the peptides or peptidomimetics from 128 μg/mL (well 1) to 62.5 ng/mL (well 12) was established in each series. The plates were incubated at 37° C. for 20 h and then the absorption was measured at 595 nm with a TECAN microtiter plate spectrophotometer (Tecan Trading AG, Mannedorf, Switzerland). The MIC values of all peptides and peptidomimetics were determined in triplicate. Sterile water was used as negative control.
(§3) The tests were in this case carried out in Mueller-Hinton medium (¼ concentrated), which is equivalent to 1% TSB.

E. coli 045-849 SENTRY = system: E. coli 045-849 SENTRY
Method: as §2, §3

[2] = system: P. aeruginosa 10 J. Wilson
Method: as §2, §3

P. vulgaris ATCC 6896 = system: P. vulgaris ATCC 6896
Method: as §2, §3

K. pneumoniae ATCC 27799 = conditions: ATCC 27799
Method: as §2, §3

P. mirabilis ATCC 7002 = system: P. mirabilis ATCC 7002
Method: as §2, §3

E. coli D31 J. Wilson = conditions: ¼ Muller-Hinton medium
Method: as §2, §3

[3] = system: S. typhimurium ATCC 14028
Method: as §2, §3

[4] = system: S. typhimurium ATCC 700408
Method: as §2, §3

K. pneumoniae 012-3131 = system: K. pneumoniae 012-3131
Method: as §2, §3

E. coli ATCC BAA-457 = conditions: ¼ Muller-Hinton medium
Method: as §2, §3

[5] = system: S. typhimurium s5 (J. Weiser); conditions: ¼ Muller-Hinton medium
Method: as §2, §3

[6] = 25% aqueous mouse serum, 37° C., 75 μg/mL peptide
Method: (§5) For this, the peptides and peptidomimetics were dissolved in water, mouse serum was added and the peptide concentration was adjusted to 75 μg/mL. While shaking continuously, the mixture was incubated at 37° C. After 0, 30, 60, 120, 240 and 360 minutes, in each case an aliquot was taken and mixed with 15% aqueous trichloroacetic acid (Carl Roth GmbH & Co. KG; Karlsruhe, Germany). After incubation on ice for a further 10 minutes, the precipitated serum proteins were centrifuged off (5 min, 13400 rpm, MiniSpin, Eppendorf AG, Hamburg, Germany). The supernatant was removed, neutralized with 1 mol/L aqueous sodium hydroxide solution (Fluke Chemie GmbH, Buchs, Switzerland) and stored at −20° C. until analysis.
(§6) The supernatants were analyzed by RP-HPLC with a linear acetonitrile gradient (Biosolve BV, Valkenswaard, The Netherlands) in the presence of 0.1% trifluoroacetic acid (TFA, UV-grade, Fluka Chemie GmbH, Buchs, Switzerland) as ion-pairing reagent. The fractions were co-crystallized with α-cyanohydroxycinnamic acid (Bruker Daltonik GmbH; Bremen, Germany) as matrix (5.3 mg/mL in 50% acetonitrile in 0.1% aqueous TFA) and were analyzed with a tandem mass spectrometer (MALDI-TOF/TOF-MS, 4700 Proteomics Analyzer; Applied Biosystems GmbH, Weiterstadt, Germany) in the positive-ion reflector mode. The proportion of intact peptides and their degradation products or metabolites could thus be identified and quantified at the individual time points. The control used was 25% aqueous mouse serum, which was analyzed in parallel for the same time intervals.

[7] = mouse, serum
Method: as §5, §6

[8] = system: Escherichia coli DSM 10233
Method: as §2
(§4) The peptides shown in Table 8 were investigated for their MIC against pathogenic bacteria such as E. coli DSM 10233, K. pneumoniae DSM 681 and P. aeruginosa DSM 3227.

[9] = system: Klebsiella pneumoniae DSM 681
Method: as §2, §4
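Wherever Half-life in 25% mouse serum is given: intact peptide left at successive time points measured by reversed-phase HPLC with an acetonitrile gradient in the supernatant after precipitation of serum proteins.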

| Compound | MIC E. coli BL21 A1 (E. coli BL21 A1) | MIC M. luteus 10240 (M. luteus 10240) | MIC K. pneumoniae K6 ATCC 700603 [1] | MIC K. pneumoniae ATCC 27799 (K. pneumoniae ATCC 27799) | MIC E. coli D31 J. Wilson (E. coli D31 J. Wilson) | MIC K. pneumoniae 012-3131 (K. pneumoniae 012-3131) | MIC E. coli SEQ 102ATCC # BAA-4 57 (E. coli ATCC BAA-457) | Half-life in 25% mouse serum [6] | half-life [7] | also measured |
| --- | --- | --- | --- | --- | --- | --- | --- | --- | --- | --- |
| CC[C@H](C)[C@H](NC(=O)[C@H](CCCNC(=N)N)NC(=O)[C@H](CCCNC(=N)N)NC(=O)[C@@H]1CCCN1C(=O)[C@@H]1CCCN1C(=O)[C@H](CCCNC(=N)N)NC(=O)[C@@H]1CCCN1C(=O)[C@H](CCCNC(=N)N)NC(=O)[C@@H]1C[C@@H](O)CN1C(=O)[C@H](CC(C)C)NC(=O)[C@H](Cc1ccc(O)cc1)NC(=O)[C@@H]1CCCN1C(=O)[C@@H]1CCCN1C(=O)[C@H](CCCCN)NC(=O)[C@H](CC(=O)O)NC(=O)[C@@H](N)C(C)C)C(=O)N[C@@H](Cc1ccc(O)cc1)C(=O)N[C@@H](CC(N)=O)C(=O)N[C@@H](CCCNC(=N)N)C(N)=O [compound 22] (H-VDKPPYL[Hyp]RPRPPRRIYNR-NH2) | 8 µg/mL (≈ 3.33 µM) | 4 µg/mL (≈ 1.66 µM) | 8 µg/mL (≈ 3.33 µM) | 16 µg/mL (≈ 6.65 µM) | 2 µg/mL (≈ 0.831 µM) | 4 µg/mL (≈ 1.66 µM) | 4 µg/mL (≈ 1.66 µM) | – | – | MIC E. coli 045-849 SENTRY (E. coli 045-849 SENTRY; 045-849 SENTRY): 4 µg/mL (≈ 1.66 µM); MIC P. aeruginosa 10 J. Wilson [2]: 16 µg/mL (≈ 6.65 µM); MIC P. vulgaris ATCC 6896 (P. vulgaris ATCC 6896; ATCC 6896): 128 µg/mL (≈ 53.2 µM); MIC P. mirabilis ATCC 7002 (P. mirabilis ATCC 7002; ATCC 7002): 128 µg/mL (≈ 53.2 µM); MIC S. typhimurium ATCC 14028 [3]: 2 µg/mL (≈ 0.831 µM); MIC S. typhimurium ATCC 700408 [4]: 0.5 µg/mL (≈ 0.208 µM); MIC S. typhimurium s5 (J. Weiser) [5]: 8 µg/mL (≈ 3.33 µM) |
| CCCNC(=O)[C@H](CCCNC(=N)N)NC(=O)[C@H](CC(N)=O)NC(=O)[C@H](Cc1ccc(O)cc1)NC(=O)[C@@H](NC(=O)[C@H](CCCN)NC(=O)[C@H](CCCNC(=N)N)NC(=O)[C@@H]1CCCN1C(=O)[C@@H]1CCCN1C(=O)[C@H](CCCNC(=N)N)NC(=O)[C@@H]1CCCN1C(=O)[C@H](CCCNC(=N)N)NC(=O)[C@@H]1CCCN1C(=O)[C@H](CC(C)C)NC(=O)[C@H](Cc1ccc(O)cc1)NC(=O)[C@@H]1CCCN1C(=O)[C@@H]1CCCN1C(=O)[C@H](CCCCN)NC(=O)[C@H](CC(=O)O)NC(=O)[C@@H](N)C(C)C)[C@@H](C)CC [compound 71] (H-VDKPPYLPRPRPPR[Orn]IYNR-NHPr) | – | 8 µg/mL (≈ 3.35 µM) | – | – | – | – | – | >6 h | 1.75 h | – |
| H-VDKPPYLPRPRPPRRIYNNR-NH2 [compound 15] | 8 µg/mL | 8 µg/mL | 32 µg/mL | 64 µg/mL | 16 µg/mL | 16 µg/mL | 32 µg/mL | – | – | MIC E. coli 045-849 SENTRY (E. coli 045-849 SENTRY; 045-849 SENTRY): 4 µg/mL; MIC P. aeruginosa 10 J. Wilson [2]: 16 µg/mL; MIC P. vulgaris ATCC 6896 (P. vulgaris ATCC 6896; ¼ Muller-Hinton medium): >; MIC P. mirabilis ATCC 7002 (P. mirabilis ATCC 7002; ¼ Muller-Hinton medium): >; MIC S. typhimurium ATCC 14028 [3]: 4 µg/mL; MIC S. typhimurium ATCC 700408 [4]: 0.5 µg/mL; MIC S. typhimurium s5 (J. Weiser) [5]: 8 µg/mL |
| CC[C@H](C)[C@H](NC(=O)[C@@H](CCCNC(=N)N)NC(=O)[C@H](CCCNC(=N)N)NC(=O)[C@@H]1CCCN1C(=O)[C@@H]1CCCN1C(=O)[C@H](CCCNC(=N)N)NC(=O)[C@@H]1CCCN1C(=O)[C@H](CCCNC(=N)N)NC(=O)[C@@H]1CCCN1C(=O)[C@H](CC(C)C)NC(=O)[C@H](Cc1ccc(O)cc1)NC(=O)[C@@H]1CCCN1C(=O)[C@@H]1CCCN1C(=O)[C@H](CCCCN)NC(=O)[C@H](CC(=O)O)NC(=O)[C@@H](N)C(C)C)C(=O)N[C@@H](Cc1ccc(O)cc1)C(=O)N[C@@H](CC(N)=O)C(=O)N[C@@H](CCCNC(=N)N)C(N)=O [compound 111] (H-VDKPPYLPRPRPPR[dR]IYNR-NH2) | 4 µg/mL (≈ 1.67 µM) | 4 µg/mL (≈ 1.67 µM) | – | – | – | – | – | – | – | MIC E. coli DSM 10233 [8]: 4 µg/mL (≈ 1.67 µM); MIC K. pneumoniae DSM 681 [9]: 4 µg/mL (≈ 1.67 µM) |
| CCCNC(=O)[C@H](CCCNC(=N)N)NC(=O)[C@H](CC(N)=O)NC(=O)[C@H](Cc1ccc(O)cc1)NC(=O)[C@@H](NC(=O)[C@H](CCCNC(=N)N)NC(=O)[C@H](CCCNC(=N)N)NC(=O)[C@@H]1CCCN1C(=O)[C@@H]1CCCN1C(=O)[C@H](CCCNC(=N)N)NC(=O)[C@@H]1CCCN1C(=O)[C@H](CCCNC(=N)N)NC(=O)[C@@H]1CCCN1C(=O)[C@H](CC(C)C)NC(=O)[C@H](Cc1ccc(O)cc1)NC(=O)[C@@H]1CCCN1C(=O)[C@@H]1CCCN1C(=O)[C@H](CCCCN)NC(=O)[C@H](CC(=O)O)NC(=O)[C@@H](N)C(C)C)[C@@H](C)CC [compound 58] (H-VDKPPYLPRPRPPRRIYNR-NHPr) | 4 µg/mL (≈ 1.64 µM) | 8 µg/mL (≈ 3.29 µM) | – | – | – | – | – | >2 h | 1 h | – |
| CC[C@@H](C)[C@@H](NC(=O)[C@@H](Cc1ccc(O)cc1)NC(=O)[C@@H](CC(N)=O)NC(=O)[C@H](N)CCCNC(=N)N)C(=O)N[C@H](CCCNC(=N)N)C(=O)N[C@H](CCCNC(=N)N)C(=O)N1CCC[C@@H]1C(=O)N1CCC[C@@H]1C(=O)N[C@H](CCCNC(=N)N)C(=O)N1CCC[C@@H]1C(=O)N[C@H](CCCNC(=N)N)C(=O)N1CCC[C@@H]1C(=O)N[C@H](CC(C)C)C(=O)N[C@H](Cc1ccc(O)cc1)C(=O)N1CCC[C@@H]1C(=O)N1CCC[C@@H]1C(=O)N[C@H](CCCCN)C(=O)N[C@H](CC(=O)O)C(=O)N[C@@H](C(N)=O)C(C)C [compound 117] (H-[dR][dN][dY][dI][dR][dR][dP][dP][dR][dP][dR][dP][dL][dY][dP][dP][dK][dD][dV]-NH2) | 64 µg/mL (≈ 26.8 µM) | 32 µg/mL (≈ 13.4 µM) | – | – | – | – | – | – | – | MIC E. coli DSM 10233 [8]: >32 µg/mL; MIC K. pneumoniae DSM 681 [9]: >32 µg/mL |
| CC[C@H](C)[C@H](NC(=O)[C@H](CCCN)NC(=O)[C@H](CCCNC(=N)N)NC(=O)[C@@H]1CCCN1C(=O)[C@@H]1CCCN1C(=O)[C@H](CCCNC(=N)N)NC(=O)[C@@H]1CCCN1C(=O)[C@H](CCCNC(=N)N)NC(=O)[C@@H]1CCCN1C(=O)[C@H](CC(C)C)NC(=O)[C@H](Cc1ccc(O)cc1)NC(=O)[C@@H]1CCCN1C(=O)[C@@H]1CCCN1C(=O)[C@H](CCCCN)NC(=O)[C@H](CC(=O)O)NC(=O)[C@@H](N)C(C)C)C(=O)N[C@@H](Cc1ccc(O)cc1)C(=O)N[C@@H](CC(N)=O)C(=O)N[C@@H](CCCNC(=N)N)C(N)=O [compound 61] (H-VDKPPYLPRPRPPR[Orn]IYNR-NH2) | 8 µg/mL (≈ 3.41 µM) | 16 µg/mL (≈ 6.81 µM) | – | – | – | – | – | 1.5 h | 1.08 h | – |
| VDKPPYLPRPRPPRRIYNNR [compound 14] | 8 µg/mL | 16 µg/mL | 64 µg/mL | 128 µg/mL | 32 µg/mL | 32 µg/mL | 64 µg/mL | <0.5 h | – | MIC E. coli 045-849 SENTRY (E. coli 045-849 SENTRY; ¼ Muller-Hinton medium): 4 µg/mL |
